Assay results as given in patent publication US8487121B2, “Chromane derivatives as TRPV3 modulators” (Glenmark Pharmaceuticals S.A., priority 2007, dated 2013).

Biological target: T1, Human TRPV3 (Homo sapiens, UniProt Q8NET8)
T1 construct: expressed in transfected cells; host or cells: CHO cells (G-418 selected)
T1 sequence (Q8NET8 1-790): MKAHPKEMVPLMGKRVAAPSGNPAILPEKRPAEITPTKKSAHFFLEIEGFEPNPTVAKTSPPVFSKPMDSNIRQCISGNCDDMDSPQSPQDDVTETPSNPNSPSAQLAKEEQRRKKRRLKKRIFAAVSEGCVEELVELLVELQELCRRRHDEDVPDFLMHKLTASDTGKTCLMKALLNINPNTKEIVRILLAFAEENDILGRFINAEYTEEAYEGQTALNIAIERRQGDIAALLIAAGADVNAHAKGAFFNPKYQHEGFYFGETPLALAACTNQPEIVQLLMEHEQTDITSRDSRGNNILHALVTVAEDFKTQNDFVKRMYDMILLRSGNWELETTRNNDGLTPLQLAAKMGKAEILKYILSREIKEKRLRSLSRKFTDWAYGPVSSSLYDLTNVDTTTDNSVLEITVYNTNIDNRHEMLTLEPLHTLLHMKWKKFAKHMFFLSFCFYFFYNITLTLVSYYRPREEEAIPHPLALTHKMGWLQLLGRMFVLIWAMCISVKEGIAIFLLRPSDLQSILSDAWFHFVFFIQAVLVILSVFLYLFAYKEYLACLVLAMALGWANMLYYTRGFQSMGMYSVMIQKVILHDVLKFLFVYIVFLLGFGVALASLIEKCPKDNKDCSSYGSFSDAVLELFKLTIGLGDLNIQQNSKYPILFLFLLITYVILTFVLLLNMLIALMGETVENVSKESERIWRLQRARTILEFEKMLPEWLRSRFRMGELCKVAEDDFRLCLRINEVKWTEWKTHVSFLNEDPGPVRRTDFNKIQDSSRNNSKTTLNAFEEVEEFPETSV
Assay: 45Calcium uptake assay: inhibition of 2-APB induced cellular uptake of radioactive calcium
Type: cell-based
Conditions: human TRPV3 expressing CHO cells, 2-APB 500 μM; for inhibition at 1 µM: 1.0 μM compound, read-out: Percentage inhibition at 1.0 μM; for inhibition at 10 µM: 10.0 μM compound, read-out: Percentage inhibition at 10.0 μM
Description: The illustrative examples of the present invention are screened for TRPV3 activity according to a modified procedure described in Toth, A. et al. Life Sciences (2003), 73, 487-498. The screening of the compounds can be carried out by other methods and procedures known to a person skilled in the art. Such screening methods may be found in Hu, H-Z., et al. J. Biol. Chem. (2004), 279, 35741-35748; Smith, G. D et al. Nature (2002), 418, 186-190 and Peier, A. M., et al. Science (2002), 296, 2046-2049.
Screening for TRPV3 Antagonist Using the ^45Calcium Uptake Assay:
The inhibition of TRPV3 receptor activation was followed as inhibition of 2-APB induced cellular uptake of radioactive calcium. Test compounds were dissolved in DMSO to prepare 20 mM stock and then diluted using plain medium with 0.1% BSA and 1.8 mM CaCl2 to get desired concentration. Final concentration of DMSO in the reaction was 0.5% (v/v). Human TRPV3 expressing CHO cells were grown in F-12 DMEM medium with 10% FBS, 1% penicillin-streptomycin solution, 400 μg/ml of G-418. Cells were seeded 24 h prior to the assay in 96 well plates so as to get ˜50,000 cells per well on the day of experiment. Cells were treated with test compounds for 10 minutes followed by addition of 2-APB at a final concentration of 500 μM and 5 μCi/ml ^45Ca^+2 for 4 minutes. Cells were washed and lysed using buffer containing 1% Triton X-100, 0.1% deoxycholate and 0.1% SDS. Radioactivity in the lysate was measured in Packardt Top count after addition of liquid scintillant.
Concentration response curves were plotted as a % of maximal response obtained in the absence of test antagonist. IC50 value was calculated from concentration response curve by nonlinear regression analysis using GraphPad PRISM software.
Percentage inhibition at concentrations of 1.0 μM and 10.0 μM are given in the table along with IC50 (nM) values for selected examples.

Structure (SMILES)	inhibition at 1 µM	inhibition at 10 µM	IC50
CC(C)S(=O)(=O)Nc1ccccc1CCC(=O)NC1CC2(CCC2)Oc2ccc(Cl)cc21 (stereo not drawn) [Example 34, N-(6-Chloro-3,4-dihydrospiro[chromene-2,1′-cyclobutan]-4-yl)-3-{2-[(isopropylsulfonyl)amino]phenyl}propanamide]	5.69%	77.1%	
COc1ccc2[nH]c(C)c(CC(=O)NC3CC4(CCC4)Oc4ccc(Cl)cc43)c2c1 (stereo not drawn) [Example 25, N-(6-Chloro-3,4-dihydrospiro[chromene-2,1′-cyclobutan]-4-yl)-2-(5-methoxy-2-methyl-1H-indol-3-yl)acetamide]	19%	48%	
O=C(CCc1c[nH]c2ccccc12)NC1CC2(CCC2)Oc2ccc(Cl)cc21 (stereo not drawn) [Example 77, N-(6-Chloro-3,4-dihydrospiro[chromene-2,1′-cyclobutan]-4-yl)-3-(1H-indol-3-yl)-propanamide]	39.4%	81.8%	
Cc1c(CC(=O)NC2CC3(CCC3)Oc3ccc(F)cc32)[nH]c2ccc(F)cc12 (stereo not drawn) [Example 24, N-(6-Fluoro-3,4-dihydrospiro[chromene-2,1′-cyclobutan]-4-yl)-2-(5-fluoro-3-methyl-1H-indol-2-yl)acetamide]	26.9%	89.9%	1000 to 2000 nM
COc1cccc(CCC(=O)NC2CC(C)(C)Oc3ccccc32)c1OC1CCCC1 (stereo not drawn) [Example 88, N-(2,2-Dimethyl-3,4-dihydro-2H-chromen-4-yl)-3-(2-cyclopentyloxy-3-methoxy)phenylpropanamide]	17.1%	93.2%	
COc1cccc(CCC(=O)NC2CC3(CCC3)Oc3ccccc32)c1OC1CCCC1 (stereo not drawn) [Example 37, N-(3,4-Dihydrospiro[chromene-2,1′-cyclobutan]-4-yl)-3-(2-cyclopentyloxy-3-methoxy)phenylpropanamide]	46.3%	95.7%	500 to 1000 nM
COc1cccc(CCC(=O)NC2CC3(CCC3)Oc3ccc(Cl)cc32)c1OCc1ccccc1 (stereo not drawn) [Example 56, N-(6-Chloro-3,4-dihydrospiro[chromene-2,1′-cyclobutan]-4-yl)-3-(2-benzyloxy-3-methoxy)phenylpropanamide]	57.5%	87.5%	
O=C(Cc1ccc2ccccc2c1)NC1CC2(CCC2)Oc2ccc(Cl)cc21 (stereo not drawn) [Example 18, N-(6-Chloro-3,4-dihydrospiro[chromene-2,1′-cyclobutan]-4-yl)-2-(2-naphthyl)acetamide]	36.1%	72.3%	
O=C(Cc1cccc2ccccc12)N[C@H]1CC2(CCC2)Oc2c(Cl)cccc21 [Example 16, N-[(4S)-8-Chloro-3,4-dihydrospiro[chromene-2,1′-cyclobutan]-4-yl]-2-(1-naphthyl)-acetamide]	0%	35.2%	
COc1cccc(CCC(=O)N[C@@H]2CC3(CCC3)Oc3c(Cl)cccc32)c1OC1CCCC1 [Example 47]			< 500 nM
COc1cccc(CCCC(=O)N[C@@H]2CC3(CCC3)Oc3c(Cl)cccc32)c1OC1CCCC1 [Example 95, (4R)—N-(8-Chloro-3,4-dihydrospiro[chromene-2,1′-cyclobutan]-4-yl)-4-(2-cyclopentyloxy-3-methoxyphenyl)butanamide]	71.8%	96.5%	500 to 1000 nM
O=C(CCCc1ccccc1OC1CCCC1)NC1CC2(CCC2)Oc2ccc(Cl)cc21 (stereo not drawn) [Example 91, N-(6-Chloro-3,4-dihydrospiro[chromene-2,1′-cyclobutan]-4-yl)-4-(2-cyclopentyloxy-phenyl)butanamide]	51%	82.5%	
COc1cccc(CCC(=O)N[C@H]2CC3(CCC3)Oc3ccc(Cl)cc32)c1OC1CCCC1 [Example 43]	64.6%	91.7%	500 to 1000 nM
COc1cc(CCC(=O)N[C@H]2CC3(CCC3)Oc3ccc(Cl)cc32)cc2cc(C)oc12 [Example 80, N-[(4S)-6-chloro-3,4-dihydrospiro[chromene-2,1′-cyclobutan]-4-yl]-3-(7-methoxy-2-methyl-1-benzofuran-5-yl)propanamide]	73.5%	98.6%	500 to 1000 nM
COc1cccc(CCCC(=O)NC2CC3(CCC3)Oc3ccc(Cl)cc32)c1OC1CCCC1 (stereo not drawn) [Example 92, N-(6-Chloro-3,4-dihydrospiro[chromene-2,1′-cyclobutan]-4-yl)-4-[2-(cyclopentyloxy)-3-methoxyphenyl]butanamide]	86.1%	95.8%	< 500 nM
COc1cccc(CCCC(=O)N[C@H]2CC3(CCC3)Oc3ccc(Cl)cc32)c1OC1CCCC1 [Example 94]	79.7%	97.2%	< 500 nM
O=C(Cc1cccc2ccccc12)N[C@@H]1CC2(CCC2)Oc2c(Cl)cccc21 [Example 15, N-[(4R)-8-Chloro-3,4-dihydrospiro[chromene-2,1′-cyclobutan]-4-yl]-2-(1-naphthyl)-acetamide]		27.3%	
COc1ccc2ccccc2c1CCC(=O)NC1CCSc2ccc(Cl)cc21 (stereo not drawn) [Example 90, N-(6-chloro-3,4-dihydro-2H-thiochromen-4-yl)-3-(2-methoxy-1-naphthyl)propanamide]	49.2%	91.4%	
O=C(Cc1cccc2ccccc12)N[C@@H]1CC2(CCC2)Oc2c(F)cc(F)cc21 [Example 11, N-[(4R)-6,8-difluoro-3,4-dihydrospiro[chromene-2,1′-cyclobutan]-4-yl]-2-(1-naphthyl)acetamide]	23.6%	76%	
CS(=O)(=O)Nc1ccccc1CC(=O)NC1CC2(CCC2)Oc2ccc(Cl)cc21 (stereo not drawn) [Example 3, N-(6-chloro-3,4-dihydrospiro[chromene-2,1′cyclobutan]-4-yl)-2-{2-[(methylsulfonyl)-amino]phenyl}acetamide]	0%	33.1%	
COc1cccc(CCCC(=O)NC2CC3(CCC3)Oc3c(Cl)cc(Cl)cc32)c1OC1CCCC1 (stereo not drawn) [Example 98, N-(6,8-Dichloro-3,4-dihydrospiro[chromene-2,1′-cyclobutan]-4-yl)-4-(2-cyclopentyloxy-3-methoxyphenyl)butanamide]	36.9%	69.5%	
COc1ccc2cc(CCC(=O)N[C@H]3CC4(CCC4)Oc4ccc(Cl)cc43)ccc2c1 [Example 75]	46.6%	90.4%	
COc1cccc(CCC(=O)NC2CC3(CCC3)Oc3ccc(Cl)cc32)c1OC (stereo not drawn) [Example 38, N-(6-Chloro-3,4-dihydrospiro[chromene-2,1′-cyclobutan]-4-yl)-3-(2,3-dimethoxy)-phenylpropanamide]	23.8%	82.7%	
O=C(Cc1ccccc1)NC1CC2(CCC2)Oc2c(Cl)cccc21 (stereo not drawn) [Example 1, N-(8-Chloro-3,4-dihydrospiro[chromene-2,1′-cyclobutan]-4-yl)-2-phenylacetamide]	1.7%	10%	
CC(C)Oc1c(CCC(=O)NC2CC3(CCC3)Oc3ccc(Cl)cc32)cccc1NS(C)(=O)=O (stereo not drawn) [Example 57, N-(6-Chloro-3,4-dihydrospiro[chromene-2,1′-cyclobutan]-4-yl)-3-{2-isopropoxy-3-[(methylsulfonyl)amino]phenyl}propanamide]	30.3%	84.3%	
O=C(Cc1noc2ccccc12)N[C@@H]1CC2(CCC2)Oc2ccc(Cl)cc21 [Example 26]	29.4%	46.1%	
